In US8735620B2, “Processes for preparing (E)-styrylbenzylsulfone compounds and uses thereof for treating proliferative disorders” (priority 2008, dated 2014):
pIC50: −log10 of the molar value.

Columns and labels:
[1] = tested on: human vascular endothelial cells (HUVEC); assay: Cell cycle analysis by flow cytometry, normal cells; type: cell-based; conditions: 20 nM, 24 hr intervals
Experimental: (§1) FIG. 2 Preferential tumor cell killing activity of 6aa. A. Cell Cycle analyses. Normal (HUVEC) and tumor cells (DU145) were treated with 20 nM concentration of 6aa and incubated in medium containing 10% fetal bovine serum. At 24 hr intervals, the cells were fixed, stained with propidium iodide and analyzed for their DNA content by flow Cytometry. B. Induction of apoptosis in normal (HUVEC) and tumor cells (DU145) was assessed by western blot analysis of cell lysates treated with 6aa for 24, 48 and 72 h. The Western blots were probed with anti-PARP antibodies to assess the cleavage of the protein.
(§2) Human prostate tumor cells, DU145 cells, and normal diploid human lung fibroblasts, HFL-1 cells, were grown in DMEM (Cellgro) supplemented with 10% fetal bovine serum and 1 unit/mL penicillin-streptomycin. The cells were plated onto 100 mm^2 dishes at a cell density of 1.0×10^6 cells/dish, and 24 h later, they were treated with 2.5 μM of the compound. The cells were harvested 24, 48 and 72 h after treatment. The cells were removed from the plate by trypsin digestion and combined with the non-attached cells found in the medium. The cell pellets were washed in phosphate buffered saline (PBS), and fixed in ice cold 70% ethanol for at least 24 h. […] The stained cells were then analyzed on a Becton-Dickinson (BD) (FACScan) flow cytometer and the data analyzed by cell cycle analysis software (Modfit, BD).

[2] = tested on: DU145 (prostate cancer) cells; assay: Cell cycle analysis by flow cytometry, tumor cells; type: cell-based, human; conditions: DU145, 20 nM, 24 hr intervals
Experimental: as §1, §2

[3] = tested on: bone marrow cells; assay: Bone marrow harvest and colony formation assay; type: in vivo, CD-1 mice; conditions: 100 mg/kg intravenously, 12, 24 and 48 h after injection
Experimental: FIG. 4 Bone marrow toxicity profile of 6ab. To assess the toxicity of 6ab, the phosphate salt of the drug was injected into mice (100 mg/Kg) and bone marrow harvested from femur and tibia after 12, 24 and […] following the injection of the drug. The bone marrow cells were cultured in methylcellulose medium supplemented with a mixture of stem cell factor, GM-CSF, IL-3 and erythropoietin for one week and colony forming units were determined.
Bone marrow was harvested from femur and tibia of CD-1 mice injected with 200 μL of PBS or 6ab [10 mg/mL:100 mg/kg dose] at 12, 24, or 48 h before the sacrifice. The bone marrow cells were cultured in Methylcellulose medium supplemented with 50 ng/mL rmStem Cell Factor, 10 ng/mL rmIL-3, 10 ng/mL rh IL-6, 200 μg/mL human Transfeffin, and 3 units/mL rhErythropoietin (Stem Cell Technologies, Vancouver, BC, Canada). Cultures were seeded in duplicates using 35 mm plastic petri dishes and colony forming units were determined after one week.

[4] = tested on: Sk-OV-3; assay: Tumor cell killing, Sk-OV-3; type: cell-based, human; conditions: Sk-OV-3, OVARIAN; read-out: Tumor cell killing (IC50) concentration
Experimental: Tissue Culture and Reagents: Paclitaxel was purchased from Sigma. Cell lines were purchased from ATCC. Cell lines were routinely grown in DMEM or RPM1 (CellGro) supplemented with 10% fetal bovine serum (Atlas) and 1 unit/mL penicillin-streptomycin (Gibco).
A number of tumor cell lines were tested using a dose response end point assay system. The cells were grown in either DMEM or RPMI supplemented with 10% fetal bovine serum and 1 unit/mL Penicillin-Streptomycin solution. The tumor cells were plated into 6 well dishes at a cell density of 1.0×10^5 cells/mL/well and compounds were added 24 h later at various concentrations. Cell counts were determined from duplicate wells after 96 h of treatment. The total number of viable cells was determined by trypan blue exclusion.

[5] = tested on: MIA-PaCa-2 cells; assay: Soft agar colony formation, MIA-PaCa-2; type: cell-based, human; conditions: MIA-PaCa-2, dose dependent, three weeks
Experimental: FIG. 1 Anti-tumor effects of (E)-2,4,6-Trimethoxystyryl-3-Hydroxy-4-Methoxybenzyl Sulfone (6aa). A. 6aa inhibits the growth of parental (MES-SA) and Paclitaxel resistant (MES-SA/DX5) cell lines with equal efficiency. The parental uterine sarcoma cells and the MDR positive (MES-SA/DX5) cells were plated into 6 well dishes and treated with various concentrations of 6aa and Paclitaxel for 96 h. The number of viable cells from duplicate plates was determined by trypan blue exclusion. B. Soft Agar Assays. MIA-PaCa-2 cells (1.0×10^5) were plated in soft agar containing various concentrations of each compound in triplicates. After three weeks of growth, the plates were stained for 48 h using 0.05% nitroblue tetrazolium solution. Representative plates were photographed using an Olympus stereoscope mounted with a Sony digital camera system (DKC5000, Sony Inc).
The soft agar plates were prepared as described by Cosenza, et al (Cosenza, S. C. et al. In Cell Growth, Differentiation and Senescence, Studzinski, G. P., Ed.; Oxford University Press: 1999, 161-176.). Briefly, Noble bottom agar (0.8%) was plated onto 60 mm tissue culture plates. Exponentially growing MIA-PaCa-2 cells (1.0×10^5) were mixed with growth medium with various concentrations of each compound and mixed with Noble agar to a final concentration of 0.4%. Each concentration was plated in triplicate. The top agar was allowed to solidify and the plates were then incubated at 5% CO2 at 37° C. for 3 weeks. The plates were then stained with 0.05% nitroblue tetrazolium (NBT) solution and representative plates were photographed using an Olympus stereoscope mounted with a Sony digital camera system (DKC5000, Sony Inc).

COc1cc(OC)c(/C=C/S(=O)(=O)Cc2ccc(OC)c(O)c2)c(OC)c1 [6aa, (E)-2,4,6-Trimethoxystyryl-3-Hydroxy-4-Methoxybenzyl Sulfone]
effect on cell cycle progression [1]: block of their cell cycle progression in the G1 phase
effect on cell cycle progression [2]: gradually accumulated in the G2/M phase
in vitro hematopoietic colony formation of bone marrow cells [3]: no reduction in total, myeloid or lymphoid colony formation
pIC50 [4]: 8.22
growth of tumor cells in soft agar [5]: complete inhibition of the growth of tumor cells
